Results from ChEMBL document CHEMBL2396621, “Design, synthesis and biological evaluation of 2-mercapto-3-phenethylquinazoline bearing anilide fragments as potential antitumor agents: molecular docking study” (2013).

Tests used:
Type in all cases: functional
[1] = system: SF-295; assay: Cytotoxicity against human SF295 cells assessed as growth inhibition at 10 uM after 48 hrs by coulter counter analysis; conditions: SF-295, 48 h, read-out: GI
[2] = system: Hs-578T; assay: Cytotoxicity against human Hs578T cells assessed as growth inhibition at 10 uM after 48 hrs by coulter counter analysis; conditions: read-out: GI
[3] = system: SF-539; assay: Cytotoxicity against human SF539 cells assessed as growth inhibition at 10 uM after 48 hrs by coulter counter analysis; conditions: SF-539, 48 h, read-out: GI
[4] = system: RXF 393; assay: Cytotoxicity against human RXF393 cells assessed as growth inhibition at 10 uM after 48 hrs by coulter counter analysis; conditions: RXF 393, 48 h, read-out: GI
[5] = system: KM12; assay: Cytotoxicity against human KM12 cells assessed as growth inhibition at 10 uM after 48 hrs by coulter counter analysis; conditions: KM12, 48 h, read-out: GI
[6] = system: PC-3; assay: Cytotoxicity against human PC3 cells assessed as growth inhibition at 10 uM after 48 hrs by coulter counter analysis; conditions: PC-3, 48 h, read-out: GI
[7] = system: NCI-H460; assay: Cytotoxicity against human NCI-H460 cells assessed as growth inhibition at 10 uM after 48 hrs by coulter counter analysis; conditions: NCI-H460, 48 h, read-out: GI
[8] = system: CAKI-1; assay: Cytotoxicity against human Caki1 cells assessed as growth inhibition at 10 uM after 48 hrs by coulter counter analysis; conditions: CAKI-1, 48 h, read-out: GI
[9] = Cytotoxicity against human EKVX cells assessed as growth inhibition at 10 uM after 48 hrs by coulter counter analysis; conditions: read-out: GI
[10] = system: SK-OV-3; assay: Cytotoxicity against human SKOV3 cells assessed as growth inhibition at 10 uM after 48 hrs by coulter counter analysis; conditions: SK-OV-3, 48 h, read-out: GI
[11] = system: OVCAR-4; assay: Cytotoxicity against human OVCAR4 cells assessed as growth inhibition at 10 uM after 48 hrs by coulter counter analysis; conditions: OVCAR-4, 48 h, read-out: GI
[12] = system: COLO 205; assay: Cytotoxicity against human COLO205 cells assessed as growth inhibition at 10 uM after 48 hrs by coulter counter analysis; conditions: COLO 205, 48 h, read-out: GI
[13] = system: HOP-62; assay: Cytotoxicity against human HOP62 cells assessed as growth inhibition at 10 uM after 48 hrs by coulter counter analysis; conditions: HOP-62, 48 h, read-out: GI
[14] = system: 786-0; assay: Cytotoxicity against human 786-0 cells assessed as growth inhibition at 10 uM after 48 hrs by coulter counter analysis; conditions: 786-0, 48 h, read-out: GI
[15] = system: HCC 2998; assay: Cytotoxicity against human HCC2998 cells assessed as growth inhibition at 10 uM after 48 hrs by coulter counter analysis; conditions: HCC 2998, 48 h, read-out: GI
[16] = system: NCI-H23; assay: Cytotoxicity against human NCI-H23 cells assessed as growth inhibition at 10 uM after 48 hrs by coulter counter analysis; conditions: NCI-H23, 48 h, read-out: GI
[17] = system: LOX IMVI; assay: Cytotoxicity against human LOXIMVI cells assessed as growth inhibition at 10 uM after 48 hrs by coulter counter analysis; conditions: read-out: GI
[18] = system: UACC-257; assay: Cytotoxicity against human UACC257 cells assessed as growth inhibition at 10 uM after 48 hrs by coulter counter analysis; conditions: UACC-257, 48 h, read-out: GI
[19] = system: NCI-H226; assay: Cytotoxicity against human NCI-H226 cells assessed as growth inhibition at 10 uM after 48 hrs by coulter counter analysis; conditions: NCI-H226, 48 h, read-out: GI
[20] = system: ACHN; assay: Cytotoxicity against human ACHN cells assessed as growth inhibition at 10 uM after 48 hrs by coulter counter analysis; conditions: read-out: GI
[21] = system: Malme-3M; assay: Cytotoxicity against human MALME-3M cells assessed as growth inhibition at 10 uM after 48 hrs by coulter counter analysis; conditions: read-out: GI
[22] = Cytotoxicity against human NCI-ADR-RES cells assessed as growth inhibition at 10 uM after 48 hrs by coulter counter analysis; conditions: read-out: GI
[23] = system: SW-620; assay: Cytotoxicity against human SW620 cells assessed as growth inhibition at 10 uM after 48 hrs by coulter counter analysis; conditions: SW-620, 48 h, read-out: GI
[24] = system: OVCAR-5; assay: Cytotoxicity against human OVCAR5 cells assessed as growth inhibition at 10 uM after 48 hrs by coulter counter analysis; conditions: OVCAR-5, 48 h, read-out: GI
[25] = system: DU-145; assay: Cytotoxicity against human DU145 cells assessed as growth inhibition at 10 uM after 48 hrs by coulter counter analysis; conditions: DU-145, 48 h, read-out: GI
[26] = system: U-251; assay: Cytotoxicity against human U251 cells assessed as growth inhibition at 10 uM after 48 hrs by coulter counter analysis; conditions: U-251, 48 h, read-out: GI
[27] = system: IGROV-1; assay: Cytotoxicity against human IGROV1 cells assessed as growth inhibition at 10 uM after 48 hrs by coulter counter analysis; conditions: IGROV-1, 48 h, read-out: GI
[28] = system: UACC-62; assay: Cytotoxicity against human UACC62 cells assessed as growth inhibition at 10 uM after 48 hrs by coulter counter analysis; conditions: UACC-62, 48 h, read-out: GI
[29] = system: M14; assay: Cytotoxicity against human M14 cells assessed as growth inhibition at 10 uM after 48 hrs by coulter counter analysis; conditions: M14, 48 h, read-out: GI
[30] = system: UO-31; assay: Cytotoxicity against human UO31 cells assessed as growth inhibition at 10 uM after 48 hrs by coulter counter analysis; conditions: UO-31, 48 h, read-out: GI
[31] = system: MDA-MB-231; assay: Cytotoxicity against human MDA-MB-231 cells assessed as growth inhibition at 10 uM after 48 hrs by coulter counter analysis; conditions: MDA-MB-231, 48 h, read-out: GI
[32] = system: A498; assay: Cytotoxicity against human A498 cells assessed as growth inhibition at 10 uM after 48 hrs by coulter counter analysis; conditions: A498, 48 h, read-out: GI
[33] = system: HCT-15; assay: Cytotoxicity against human HCT15 cells assessed as growth inhibition at 10 uM after 48 hrs by coulter counter analysis; conditions: HCT-15, 48 h, read-out: GI
[34] = system: TK-10; assay: Cytotoxicity against human TK10 cells assessed as growth inhibition at 10 uM after 48 hrs by coulter counter analysis; conditions: TK-10, 48 h, read-out: GI
[35] = system: MDA-MB-435; assay: Cytotoxicity against human MDA-MB-435 cells assessed as growth inhibition at 10 uM after 48 hrs by coulter counter analysis; conditions: MDA-MB-435, 48 h, read-out: GI
[36] = system: NCI-H522; assay: Cytotoxicity against human NCI-H522 cells assessed as growth inhibition at 10 uM after 48 hrs by coulter counter analysis; conditions: NCI-H522, 48 h, read-out: GI
[37] = system: HT-29; assay: Cytotoxicity against human HT-29 cells assessed as growth inhibition at 10 uM after 48 hrs by coulter counter analysis; conditions: HT-29, 48 h, read-out: GI

Row | SMILES | inhibition of growth at 10 µM [1] [%] | inhibition of growth at 10 µM [2] [%] | inhibition of growth at 10 µM [3] [%] | inhibition of growth at 10 µM [4] [%] | inhibition of growth at 10 µM [5] [%] | inhibition of growth at 10 µM [6] [%] | inhibition of growth at 10 µM [7] [%] | inhibition of growth at 10 µM [8] [%] | inhibition of growth at 10 µM [9] [%] | inhibition of growth at 10 µM [10] [%] | inhibition of growth at 10 µM [11] [%] | inhibition of growth at 10 µM [12] [%] | inhibition of growth at 10 µM [13] [%] | inhibition of growth at 10 µM [14] [%] | inhibition of growth at 10 µM [15] [%] | inhibition of growth at 10 µM [16] [%] | inhibition of growth at 10 µM [17] [%] | inhibition of growth at 10 µM [18] [%] | inhibition of growth at 10 µM [19] [%] | inhibition of growth at 10 µM [20] [%] | also measured
1 | CCOC(=O)c1ccc(NC(=O)CSc2nc3ccccc3c(=O)n2CCc2ccccc2)cc1 | 25 | 33 | < 10 | 14 | 11 | 10 | 23 | 19 | 34 | 19 | 10 | 22 | 45 | < 10 | < 10 | 13 | 22 | 29 | 25 | 21 | inhibition of growth at 10 µM [21]: 23%; inhibition of growth at 10 µM [22]: 19%; inhibition of growth at 10 µM [23]: 11%; inhibition of growth at 10 µM [24]: 15%; inhibition of growth at 10 µM [25]: 10%; inhibition of growth at 10 µM [26]: 28%; inhibition of growth at 10 µM [27]: 31%; inhibition of growth at 10 µM [28]: 29%; inhibition of growth at 10 µM [29]: 21%; inhibition of growth at 10 µM [30]: 10%; inhibition of growth at 10 µM [31]: 48%; inhibition of growth at 10 µM [32]: < 10%; inhibition of growth at 10 µM [33]: < 10%; inhibition of growth at 10 µM [34]: < 10%; inhibition of growth at 10 µM [35]: 16%; inhibition of growth at 10 µM [36]: 26%; inhibition of growth at 10 µM [37]: 12%
2 | COc1cc(OC(=O)CSc2nc3ccccc3c(=O)n2CCc2ccccc2)cc(OC)c1OC | 13 | < 10 | < 10 | < 10 | < 10 | < 10 | 26 | 28 | 36 | < 10 | < 10 | < 10 | < 10 | < 10 | < 10 | < 10 | < 10 | < 10 | 16 | 10 | inhibition of growth at 10 µM [21]: < 10%; inhibition of growth at 10 µM [22]: 11%; inhibition of growth at 10 µM [23]: < 10%; inhibition of growth at 10 µM [24]: < 10%; inhibition of growth at 10 µM [25]: < 10%; inhibition of growth at 10 µM [26]: 26%; inhibition of growth at 10 µM [27]: 11%; inhibition of growth at 10 µM [28]: 23%; inhibition of growth at 10 µM [29]: < 10%; inhibition of growth at 10 µM [30]: 37%; inhibition of growth at 10 µM [31]: 20%; inhibition of growth at 10 µM [32]: < 10%; inhibition of growth at 10 µM [33]: 48%; inhibition of growth at 10 µM [34]: < 10%; inhibition of growth at 10 µM [35]: < 10%; inhibition of growth at 10 µM [36]: < 10%; inhibition of growth at 10 µM [37]: < 10%
3 | CCOc1ccc(NC(=O)CSc2nc3ccccc3c(=O)n2CCc2ccccc2)cc1 | < 10 | < 10 | < 10 | 13 | < 10 | < 10 | 11 | 12 | 19 | < 10 | < 10 | < 10 | 36 | < 10 | < 10 | < 10 | 11 | < 10 | 31 | 12 | inhibition of growth at 10 µM [21]: 37%; inhibition of growth at 10 µM [22]: < 10%; inhibition of growth at 10 µM [23]: < 10%; inhibition of growth at 10 µM [24]: < 10%; inhibition of growth at 10 µM [25]: < 10%; inhibition of growth at 10 µM [26]: 27%; inhibition of growth at 10 µM [27]: 21%; inhibition of growth at 10 µM [28]: < 10%; inhibition of growth at 10 µM [29]: 10%; inhibition of growth at 10 µM [30]: 26%; inhibition of growth at 10 µM [31]: 25%; inhibition of growth at 10 µM [32]: < 10%; inhibition of growth at 10 µM [33]: < 10%; inhibition of growth at 10 µM [34]: < 10%; inhibition of growth at 10 µM [35]: 14%; inhibition of growth at 10 µM [36]: 11%; inhibition of growth at 10 µM [37]: 10%
